Here are results for five molecules from the supplement of paper PMC11451515.

In the test the test system is P12-Ichikawa. Nature of the test: cell viability relative to DMSO control; higher = less cytotoxic. The conditions noted are these: 48 h. In a few lines:
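Viability is expressed as a percentage of DMSO wells within each plate, and cell-free wells serve as background. Seeding densities in the 1536-well plates (5 μl) were 500 cells/well for NOMO1 or SEM leukemia cells and 1000 cells/well for P12-Ichikawa. Each line was adapted for at least four passages in each medium. Library compounds in DMSO were pin-dosed at 47 μM to 0.79 nM (11 points, threefold), and CellTiter-Glo One luminescence was read after 48 h at 37°C.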

Setting [1] is: RPMI 5 mM glucose + 10% dialyzed FBS, 0.000781 µM.
[2] abbreviates: RPMI 5 mM glucose + 10% dialyzed FBS, 0.00234 µM.
Setting [3] is: RPMI 5 mM glucose + 10% dialyzed FBS, 0.00702 µM.
Setting [4] is: RPMI 5 mM glucose + 10% dialyzed FBS, 0.0211 µM.
[5] abbreviates: RPMI 5 mM glucose + 10% dialyzed FBS, 0.0632 µM.
The mark [6] stands for this setting: RPMI 5 mM glucose + 10% dialyzed FBS, 0.19 µM.
The mark [7] stands for this setting: RPMI 5 mM glucose + 10% dialyzed FBS, 0.569 µM.
The mark [8] stands for this setting: RPMI 5 mM glucose + 10% dialyzed FBS, 1.71 µM.
The mark [9] stands for this setting: RPMI 5 mM glucose + 10% dialyzed FBS, 5.12 µM.
Setting [10] is: RPMI 5 mM glucose + 10% dialyzed FBS, 15.4 µM.
Where [11] appears, read: RPMI 5 mM glucose + 10% dialyzed FBS, 46.1 µM.
Where [12] appears, read: HPLM + 10% dialyzed FBS, 0.000781 µM.
The mark [13] stands for this setting: HPLM + 10% dialyzed FBS, 0.00234 µM.
Where [14] appears, read: HPLM + 10% dialyzed FBS, 0.00702 µM.
The mark [15] stands for this setting: HPLM + 10% dialyzed FBS, 0.0211 µM.
The mark [16] stands for this setting: HPLM + 10% dialyzed FBS, 0.0632 µM.
[17] abbreviates: HPLM + 10% dialyzed FBS, 0.19 µM.
Setting [18] is: HPLM + 10% dialyzed FBS, 0.569 µM.
Setting [19] is: HPLM + 10% dialyzed FBS, 1.71 µM.
Setting [20] is: HPLM + 10% dialyzed FBS, 5.12 µM.
Where [21] appears, read: HPLM + 10% dialyzed FBS, 15.4 µM.
Setting [22] is: HPLM + 10% dialyzed FBS, 46.1 µM.
Setting [23] is: RPMI 5 mM glucose + 10% FBS, 0.000781 µM.
Where [24] appears, read: RPMI 5 mM glucose + 10% FBS, 0.00234 µM.
The mark [25] stands for this setting: RPMI 5 mM glucose + 10% FBS, 0.00702 µM.
The mark [26] stands for this setting: RPMI 5 mM glucose + 10% FBS, 0.0211 µM.
The mark [27] stands for this setting: RPMI 5 mM glucose + 10% FBS, 0.0632 µM.
Where [28] appears, read: RPMI 5 mM glucose + 10% FBS, 0.19 µM.
Setting [29] is: RPMI 5 mM glucose + 10% FBS, 0.569 µM.
[30] abbreviates: RPMI 5 mM glucose + 10% FBS, 1.71 µM.
[31] abbreviates: RPMI 5 mM glucose + 10% FBS, 5.12 µM.
[32] abbreviates: RPMI 5 mM glucose + 10% FBS, 15.4 µM.
[33] abbreviates: RPMI 5 mM glucose + 10% FBS, 46.1 µM.

For orientation: cell viability means a read-out of living cells in per cent, often relative to untreated cells. Consider `O=C(c1ccc(F)cc1)C1CCN(CCn2c(=O)[nH]c3ccccc3c2=O)CC1`, for which the cell viability under setting [1] was 121%; the cell viability under setting [2] came out at 125%; the cell viability under setting [3] turned out to be 118%; the cell viability under setting [4] was 120%; the cell viability under setting [5] turned out to be 118%; the cell viability under setting [6] is 121%. Moreover, the cell viability was found to be 140% under setting [7]; 110% under setting [8]; 116% under setting [9]; 112% under setting [10]; 102% under setting [11].
`CCOC(=O)c1ccc(C#Cc2ccc3c(c2)C(C)(C)CCS3)nc1`: the cell viability is 98.6% under setting [12]; 108% under setting [13]; 102% under setting [14]; 105% under setting [15]; 105% under setting [16]; 118% under setting [17]. Further, the cell viability by setting is: under setting [18], 110%; under setting [19], 110%; under setting [20], 108%; under setting [21], 107%; under setting [22], 78.7%; under setting [23], 95.2%. Besides, the cell viability by setting is: under setting [24], 96.1%; under setting [25], 106%; under setting [26], 109%; under setting [27], 108%; under setting [28], 106%; under setting [29], 101%. Besides, the cell viability reads like this: under setting [30], 106%; under setting [31], 106%; under setting [32], 110%; under setting [33], 94.5%; under setting [1], 98.8%; under setting [2], 99.9%. The cell viability by setting is: under setting [3], 109%; under setting [4], 110%; under setting [5], 108%; under setting [6], 107%; under setting [7], 102%; under setting [8], 113%. Besides, the cell viability under setting [9] stood at 104%, the cell viability under setting [10] is 96.1% and the cell viability under setting [11] worked out at 102%.
For the molecule `CN(C)C(=O)COC(=O)Cc1ccc(OC(=O)c2ccc(NC(=N)N)cc2)cc1`, the cell viability under setting [13] was 122%; the cell viability under setting [14] stood at 126%; the cell viability under setting [15] was 134%; the cell viability under setting [16] is 129%; the cell viability under setting [17] stood at 135%; the cell viability under setting [18] is 134%. Also, the cell viability under setting [19] amounted to 126%, the cell viability under setting [20] amounted to 107%, the cell viability under setting [21] came out at 98.4% and the cell viability under setting [22] is 70.5%.
Take `CCCCc1oc2ccc(NS(C)(=O)=O)cc2c1C(=O)c1ccc(OCCCN(CCCC)CCCC)cc1`: the cell viability came out at 98.3% under setting [12]; 99% under setting [13]; 117% under setting [14]; 108% under setting [15]; 107% under setting [16]; 108% under setting [17]. Besides, the cell viability runs as follows: under setting [18], 110%; under setting [19], 111%; under setting [20], 106%; under setting [21], 12.1%; under setting [22], 15%; under setting [23], 96%. For the same molecule, the cell viability came out at 117% under setting [24]; 113% under setting [25]; 115% under setting [26]; 118% under setting [27]; 111% under setting [28]; 112% under setting [29]. Further, the cell viability was found to be 105% under setting [30]; 98.1% under setting [31]; 15.5% under setting [32]; 12.7% under setting [33]; 93.3% under setting [1]; 99.9% under setting [2]. Moreover, the cell viability by setting is: under setting [3], 102%; under setting [4], 109%; under setting [5], 108%; under setting [6], 110%; under setting [7], 104%; under setting [8], 109%. Also, the cell viability by setting is: under setting [9], 95.7%; under setting [10], 20.9%; under setting [11], 10.3%.
`COc1ccc(CCC(=O)Nc2nc3ccc(Cl)cc3s2)cc1OC`: the cell viability runs as follows: under setting [12], 106%; under setting [13], 106%; under setting [14], 106%; under setting [15], 112%; under setting [16], 111%; under setting [17], 107%. The cell viability is, setting by setting: under setting [18], 110%; under setting [19], 102%; under setting [20], 104%; under setting [21], 99.3%; under setting [22], 98.6%; under setting [23], 109%. The cell viability under setting [24] turned out to be 118%; the cell viability under setting [25] was 94.9%; the cell viability under setting [26] amounted to 114%; the cell viability under setting [27] amounted to 111%; the cell viability under setting [28] was 110%; the cell viability under setting [29] was determined as 110%. Also, the cell viability by setting is: under setting [30], 108%; under setting [31], 109%; under setting [32], 107%; under setting [33], 92.1%; under setting [1], 113%; under setting [2], 94.1%. Moreover, the cell viability was 105% under setting [3]; 113% under setting [4]; 110% under setting [5]; 105% under setting [6]; 99.7% under setting [7]; 105% under setting [8]. Besides, the cell viability stood at 103% under setting [9], 91.9% under setting [10] and 92.6% under setting [11].
